From patent publication US11932630B2, “Heteroaryl aminopropanol derivatives” (NOVARTIS AG, priority 2021, dated 2024) come the findings set out here.

Like-named read-outs stand apart in the source and are kept apart here.

One data set concerns the target T1, human LTA4H (Homo sapiens, UniProt P09960).
T1 sequence (P09960 1-611): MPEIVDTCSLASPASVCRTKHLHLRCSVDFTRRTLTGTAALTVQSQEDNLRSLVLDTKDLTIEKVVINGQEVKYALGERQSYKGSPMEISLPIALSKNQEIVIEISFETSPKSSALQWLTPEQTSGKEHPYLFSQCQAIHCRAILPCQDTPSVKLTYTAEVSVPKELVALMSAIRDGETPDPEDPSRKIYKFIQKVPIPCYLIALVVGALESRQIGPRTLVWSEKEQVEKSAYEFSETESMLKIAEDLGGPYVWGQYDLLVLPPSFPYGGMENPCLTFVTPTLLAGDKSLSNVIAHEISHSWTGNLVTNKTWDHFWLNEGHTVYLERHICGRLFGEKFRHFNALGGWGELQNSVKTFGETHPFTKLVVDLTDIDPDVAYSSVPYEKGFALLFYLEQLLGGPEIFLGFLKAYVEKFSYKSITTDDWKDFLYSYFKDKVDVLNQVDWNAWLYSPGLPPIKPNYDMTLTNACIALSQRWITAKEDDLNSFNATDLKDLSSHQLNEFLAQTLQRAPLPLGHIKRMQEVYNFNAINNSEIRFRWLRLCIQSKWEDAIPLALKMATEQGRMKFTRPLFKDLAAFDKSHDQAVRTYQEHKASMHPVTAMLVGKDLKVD
Description: Human LTA4H enzyme assay (Arg-AMC substrate). The data set is classed as biochemical. The note with it: Arg-AMC 600 μM, 9 nM human LTA4H, 15 min pre-incubation; mean values of at least 3 measurements; read-out: ArgAMC IC50. The method, then:
a) Human LTA4H Enzyme Assay:
[…] (LTA4H) catalyzes the vinylogous hydrolysis of the epoxide, leukotriene A4 (LTA4) into the pro-inflammatory mediator LTB4.
For compound testing, compounds are delivered as 10 mM stock solutions in 90% DMSO (10% water) in matrix tubes. […] A final substrate concentration of 600 μM, which is around the KM value of Arg-AMC, at a final enzyme concentration of 9 nM is chosen. Upon addition of the substrate, the plate is immediately placed in a fluorescence reader and the fluorescence is measured every 10 minutes for 60 minutes using the filter setting λ excitation=380 nm and A emission=460 nm. […] Raw data is converted to rate (moles per minute) using the AMC calibration curve calculated from the AMC standards. The data is analyzed in GraphPad Prism (GraphPad software Inc.) using non-linear regression to determine IC50 values of LTA4H inhibitors.

In data set [1] the test system is LTB4 biosynthesis in human whole blood. Description: Human whole blood assay (hWB), inhibition of LTB4 biosynthesis. In kind it is cell-based. The note with it: read-out: hWB IC50. The method, then: b) Human Whole Blood Assay:
Compounds are tested in a human whole blood assay (hWB) to test their ability to inhibit LTB4 biosynthesis in a human cellular system. To this end, fresh blood is collected in heparinized vacutainers by venipuncture from volunteers. Blood is diluted 1:3 with RPM (Roswell Park Memorial Institute) medium and aliquots of 200 μL are transferred to 96-well round bottom cell culture plates. For compound testing, compounds are delivered as 10 mM stock solutions in 90% DMSO in matrix tubes. […] 4 μL of compound dilution or vehicle is added to 200 μL of blood and incubated for 4 hours at 37° C. in a humidified incubator. […] Incubation is terminated by centrifugation at 300 g for 10 min at 22° C. Plasma supernatant is taken and transferred to a 96 well plate for eicosanoid determination by ELISA (Assay designs) according to the manufacturer's protocol after 1:20 dilution in assay buffer. The data is analyzed in GraphPad Prism (GraphPad software Inc.) using non-linear regression to determine IC50 values of LTA4H inhibitors.

Another data set can be described thus: Hygroscopicity by DVS. In kind it is physicochemical. To be noted: for Hygroscopicity (DVS), moisture / water vapor absorbed: at 95% RH.
Data set [2] in a line: Loss on drying by TGA after storage at 92 % RH. In kind it is physicochemical. The note with it: heating rate 10 K/min, % @ °C, temperature in the line below (100, 230, 170, 195 °C). As to the method:
Thermoaravimetric Analysis (TGA):
TGA curves were obtained using a TA-instrument Q5000. 0.5-2 mg of sample was placed into an open aluminum pan. The TGA curve was measured at 10° C./min between 30-300° C. The LoD (Loss of drying) was calculated between 30° C. and 100° C. or 150° C. The weight loss is plotted against the measured sample temperature. Temperatures are reported in degrees Celsius (° C.) and weight loss in %.

[3] abbreviates: human blood diluted 1:3, 4 hours with compound, 10 μg/ml A23187 for 15 min, eicosanoid by ELISA.

What is called IC50 is the point on the concentration scale where inhibition reaches its midpoint.

Turning to `N[C@H](CO)Cn1nnc(-c2ccc(Oc3ncc(-c4ccn[nH]4)cc3F)cn2)n1` [Example 22, (S)-2-amino-3-(5-(5-((3-fluoro-5-(1H-pyrazol-5-yl)pyridin-2-yl)oxy)pyridin-2-yl)-2H-tetrazol-2-yl)propan-1-ol], the values for the IC50 (on human LTA4H; in data set [1] (setting [3])) were 2.7 nM and 89 nM, respectively.

As for `N[C@H](CO)Cn1ccc(-c2ccc(Oc3ncc(Cl)cc3F)cn2)n1` [Example 23, (S)-2-amino-3-(3-(5-((5-chloro-3-fluoropyridin-2-yl)oxy)pyridin-2-yl)-1H-pyrazol-1-yl)propan-1-ol], the IC50 at human LTA4H is 37.6 nM; in data set [1] (setting [3]), 753 nM.

`N[C@H](CO)Cn1nnc(-c2ccc(Oc3ccc(Cl)cc3)cc2)n1` [Example 27, (S)-2-Amino-3-(5-(4-(4-chlorophenoxy)phenyl)-2H-tetrazol-2-yl)propan-1-ol]: the IC50 at human LTA4H worked out at 3.3 nM; in data set [1] (setting [3]) it was 214 nM.

With `N[C@H](CO)Cn1nnc(-c2ccc(Oc3ccc(C4CC4)cn3)cc2)n1` [Example 28, (S)-2-Amino-3-(5-(4-((5-cyclopropylpyridin-2-yl)oxy)phenyl)-2H-tetrazol-2-yl)propan-1-ol], the results for the IC50 (at human LTA4H; in data set [1] (setting [3])) were 6.2 nM and 504 nM, respectively.

Turning to `N[C@@H](CO)Cn1nnc(-c2ccc(Oc3ccc(Cl)cn3)cc2)n1` [Example 31, (R)-2-Amino-3-(5-(4-((5-chloropyridin-2-yl)oxy)phenyl)-2H-tetrazol-2-yl)propan-1-ol], the IC50 at human LTA4H is 4.5 nM; in data set [1] (setting [3]), 179 nM.

Consider `N[C@H](CO)Cn1nnc(-c2ccc(Oc3ccc(Br)cn3)cc2)n1` [Example 33, (S)-2-Amino-3-(5-(4-((5-bromopyridin-2-yl)oxy)phenyl)-2H-tetrazol-2-yl)propan-1-ol], for which the concentration for half-maximal inhibition (IC50) turned out to be 2.4 nM on human LTA4H and 290 nM in data set [1] (setting [3]).

On to `N[C@H](CO)Cn1nnc(-c2ccc(Oc3ccc(Cl)cn3)cc2)n1` [Example 34, (S)-2-Amino-3-(5-(4-((5-chloropyridin-2-yl)oxy)phenyl)-2H-tetrazol-2-yl)propan-1-ol], for which the IC50 was 4 nM at human LTA4H and 800 nM in data set [1] (setting [3]).

On to `N[C@H](CO)Cn1ccc(-c2ccc(Oc3ccc(-c4ccn[nH]4)cn3)cc2)n1` [Example 36], for which the figures for the IC50 (at human LTA4H; in data set [1] (Homo sapiens)) were 2.9 nM and 60 nM, respectively.

On to `N[C@H](CO)Cn1ccc(-c2ccc(Oc3ncc(-c4cc[nH]n4)cc3F)cc2)n1` [Example 37, (S)-2-amino-3-(3-(4-((3-fluoro-5-(1H-pyrazol-5-yl)pyridin-2-yl)oxy)phenyl)-1H-pyrazol-1-yl)propan-1-ol], for which the IC50 on human LTA4H was 2.6 nM; in data set [1] (setting [3]) it was 47 nM.

`N[C@H](CO)Cc1nnn(-c2ccc(Oc3ncc(-c4ccn[nH]4)cc3F)cc2)n1` [Example 40, (S)-2-amino-(2-(4-((3-fluoro-5-(1H-pyrazol-5-yl)pyridin-2-yl)oxy)phenyl)-2H-tetrazol-5-yl)propan-1-ol]: the IC50 at human LTA4H is 2.6 nM; in data set [1] (setting [3]), 62 nM.

As to `N[C@H](CO)Cn1ccc(-c2ccc(Oc3ncc(-c4cc[nH]n4)cc3F)cc2)n1` [Example 42, (S)-2-amino-3-(3-(4-((3-fluoro-5-(1H-pyrazol-3-yl)pyridin-2-yl)oxy)phenyl)-1H-pyrazol-1-yl)propan-1-ol], the “Hygroscopicity (DVS), moisture reversibly absorbed” value in “Hygroscopicity by DVS” (above 70% RH, transforming into a hydrated form) is given as 3%. Besides, in the data set “Hygroscopicity by DVS”, the “Hygroscopicity (DVS), moisture / water vapor absorbed” value is given as 2.97 @ 95%. The “Loss on drying by TGA, After 1 day at 92 % RH” value (from here on “Loss on drying … at 92 % RH”) in data set [2] (listed as Ex 42) is listed as 2.46 @ %.

Consider `N[C@H](CO)Cn1ccc(-c2ccc(Oc3ncc(-c4ccn[nH]4)cc3F)cc2)n1` [Example 43, (S)-2-amino-3-(3-(4-((3-fluoro-5-(1H-pyrazol-5-yl)pyridin-2-yl)oxy)phenyl)-1H-pyrazol-1-yl)propan-1-ol], for which, in “Hygroscopicity by DVS” (listed as hydrochloride salt (Form E)), the “Hygroscopicity (DVS), moisture / water vapor absorbed” value stood at 0.6%. Further, in data set [2] (listed as Ex 43), the “Loss on drying … at 92 % RH” value is given as 0.30 @ %.

With `N[C@H](CO)Cn1ccc(-c2ccc(Oc3ncc(-c4ccn[nH]4)cc3F)cc2)n1` [Example 44, (S)-2-amino-3-(3-(4-((3-fluoro-5-(1H-pyrazol-3-yl)pyridin-2-yl)oxy)phenyl)-1H-pyrazol-1-yl)propan-1-ol], the “Hygroscopicity (DVS), moisture / water vapor absorbed” value in the data set “Hygroscopicity by DVS” is 0.32% @ 95% RH; in the data set “Hygroscopicity by DVS” (listed as hippuric acid salt (Form B)), “about 0.3%”. Also, in data set [2] (listed as Ex 44), the “Loss on drying … at 92 % RH” value is 0.21 @ %.

Turning to `N[C@H](CO)Cn1ccc(-c2ccc(Oc3ncc(-c4ccn[nH]4)cc3F)cc2)n1` [Example 45, (S)-2-amino-3-(3-(4-((3-fluoro-5-(1H-pyrazol-5-yl)pyridin-2-yl)oxy)phenyl)-1H-pyrazol-1-yl)propan-1-ol], the “Hygroscopicity (DVS), moisture / water vapor absorbed” value in “Hygroscopicity by DVS” (listed as Modification A) was “about 0.5%”; in the data set “Hygroscopicity by DVS” (listed as hippurate salt (Form A)), 0.5%.

Consider `N[C@H](CO)Cn1ccc(-c2ccc(Oc3ncc(-c4cc[nH]n4)cc3F)cc2)n1` [Example 46, (S)-2-amino-3-(3-(4-((3-fluoro-5-(1H-pyrazol-3-yl)pyridin-2-yl)oxy)phenyl)-1H-pyrazol-1-yl)propan-1-ol], for which, in data set [2] (listed as Ex 46), the “Loss on drying … at 92 % RH” value is recorded as 0.96 @ %.
